Test results: patent publication US20240050457A1 (UROVANT SCIENCES GMBH, priority 2020, published 2024)
Like-named read-outs stand apart in the source and are kept apart here.

Experiments:
clinical = conditions: human, plasma, po, 0.25 mg
Protocol: (§1) An open-label, single-dose and multiple-dose, two-period, two-treatment single-sequence drug-drug interaction study was conducted. All subjects received Treatment A during Period 1 and Treatment B during Period 2.
(§2) Samples were stored in polypropylene tubes and kept frozen at approximately −20° C. prior to analysis. A 150-μL matrix aliquot was fortified with 20 μL of 40.0 ng/mL internal standard working solution. Analytes were isolated using an Isolute SLE+ (200-mg) supported liquid extraction 96-well plate and eluted with 800 μL of methylene chloride. The eluate was evaporated under a nitrogen stream at approximately 45° C., and the remaining residue was reconstituted with 250 μL of 90:10:40:0.7 water/methanol/acetonitrile/1.0 M ammonium acetate, v/v/v/v. The final extract was analyzed via HPLC with column-switching and MS/MS detection using positive ion electrospray. Extracts were analyzed by HPLC MS/MS using positive ion electrospray.

[1] = for Tmax, median: healthy subjects, 18
Protocol: as §1, §2

β3-AR = β3-AR (Homo sapiens, UniProt P13945); conditions: cell based in vitro assays; cited from earlier work
cytochrome P450 = conditions: cited from earlier work

Sequence of β3-AR (P13945 whole entry): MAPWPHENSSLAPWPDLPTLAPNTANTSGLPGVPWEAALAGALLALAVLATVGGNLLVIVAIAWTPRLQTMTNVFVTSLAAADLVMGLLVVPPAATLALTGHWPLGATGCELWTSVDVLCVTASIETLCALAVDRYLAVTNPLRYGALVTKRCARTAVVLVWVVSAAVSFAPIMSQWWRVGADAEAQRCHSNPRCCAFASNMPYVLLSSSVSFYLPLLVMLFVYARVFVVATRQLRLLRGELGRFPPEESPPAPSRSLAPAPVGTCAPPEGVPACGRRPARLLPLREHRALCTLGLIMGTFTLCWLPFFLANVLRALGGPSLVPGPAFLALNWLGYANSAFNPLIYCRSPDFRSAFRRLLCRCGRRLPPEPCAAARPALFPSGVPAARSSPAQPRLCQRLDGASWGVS

Structure (SMILES)	AUC(0-inf) (clinical)	Cmax (clinical)	half-life (clinical)	Tmax, median ([1]; Digoxin 0.25 mg × 1 dose with vibegron (150 mg × 1 dose + 100 mg × 5 doses))	Tmax, median ([1]; Digoxin alone, 0.25 mg single dose oral tablet)	change of half-life (T1/2) ([1]; group receiving digoxin+vibegron compared to group receiving digoxin alone)	selectivity for activation of β3-AR over β2-AR and β1-AR (β3-AR)	inhibitor of major enzymes produced from the cytochrome P450 genes (cytochrome P450)
C[C@H]1O[C@@H](O[C@H]2[C@@H](O)C[C@H](O[C@H]3[C@@H](O)C[C@H](O[C@H]4CC[C@@]5(C)[C@H](CC[C@@H]6[C@@H]5C[C@@H](O)[C@]5(C)[C@@H](C7=CC(=O)OC7)CC[C@]65O)C4)O[C@@H]3C)O[C@@H]2C)C[C@H](O)[C@@H]1O [Digoxin]	17.2 ng·h/mL	1.24 ng/mL	36.8 h	1.00	1.00	increase		
O=C(Nc1ccc(C[C@@H]2CC[C@H]([C@H](O)c3ccccc3)N2)cc1)[C@@H]1CCc2nccc(=O)n21 [Vibegron, (6S)—N-[4-[[(2S,5R)-5-[(R)-hydroxy(phenyl)methyl]pyrrolidin-2-yl]methyl]phenyl]-4-oxo-7,8-dihydro-6H-pyrrolo[1,2-a]pyrimidine-6-carboxamide]							> 9,000 fold	not an inhibitor
